Measurements: patent publication US8835411B2, “HIV integrase inhibitors” (priority 2010, dated 2014)
pEC50: −log10 of the molar value.

System: recombinant NL-Rluc virus
Assay: Inhibition of HIV Replication: recombinant NL-Rluc virus, Renilla luciferase reporter
Format: cell-based
Conditions: read-out: Cell Culture, serum condition of the table not stated (10% FBS, 15 mg/ml human serum albumin/10% FBS or 40% human serum/5% FBS), at least 2 experiments

With `CC(=O)NC12CCC(NC(=O)C(=O)N(C)C)(CC1)c1nc(C(=O)NCc3ccc(F)c(C)c3)c(O)c(=O)n1C2` [Example 90] the pEC50 was > 8.00.
